What was measured:
rat Cyp 2A1 = target: T1, rat Cyp 2A1 (Rattus norvegicus, UniProt P11711); experiment: Recombinant rat Cyp phenotype profiling, 2A1; format: in vitro ADME; settings: 60 min
T1 construct: purchased BD Gentest; host or cells: baculovirus infected insect cells
Method: (§1) Identification of the drug metabolizing enzymes (DMEs) of A-998679 was studied in cDNA expressed recombinant enzymes prepared from baculovirus infected insect cells over-expressing rat Cyp isoforms (BD Gentest, Woburn, MA) as listed in Table 2. Incubations were conducted in duplicate using Supersomes. The incubation mixture contained 100 pmol/ml of enzymes, except for Cyp1a1 (200 pmol/ml), 0.1 or 0.21 μM of [^3H]A-998679 in 100 mM phosphate buffer (pH 7.4). Reactions were initiated with the addition of NADPH at a final concentration of 1 mM and incubated at 37°C for 60 min. At the end of the incubation period, the incubations were terminated by the addition of acetonitrile/ethanol (50/50, v/v) solution. Insect control samples lacking expressed enzyme were used as negative control. The degree of metabolism of A-998679 was assessed by percent of parent remaining using the radio-HPLC method described below.
(§2) Radiolabeled components from the above assays were profiled following separation by HPLC with on line radioflow detector. The system consisted of an Agilent 1100 Series quaternary pump and autosampler connected to a Packard 500TR flow scintillation detector. The data were processed using the Radiomatic™ Flo-one® software v3.65. The scintillant (Perkin Elmer FLO-SCINT™ III) flow was maintained at 3 ml/min. […]

rat Cyp1a2 = target: T2, rat Cyp1a2 (Rattus norvegicus, UniProt P04799); experiment: Recombinant rat Cyp phenotype profiling, 1A2; format: in vitro ADME; settings: 60 min
T2 construct: purchased BD Gentest; host or cells: baculovirus infected insect cells
T2 sequence (P04799 whole entry): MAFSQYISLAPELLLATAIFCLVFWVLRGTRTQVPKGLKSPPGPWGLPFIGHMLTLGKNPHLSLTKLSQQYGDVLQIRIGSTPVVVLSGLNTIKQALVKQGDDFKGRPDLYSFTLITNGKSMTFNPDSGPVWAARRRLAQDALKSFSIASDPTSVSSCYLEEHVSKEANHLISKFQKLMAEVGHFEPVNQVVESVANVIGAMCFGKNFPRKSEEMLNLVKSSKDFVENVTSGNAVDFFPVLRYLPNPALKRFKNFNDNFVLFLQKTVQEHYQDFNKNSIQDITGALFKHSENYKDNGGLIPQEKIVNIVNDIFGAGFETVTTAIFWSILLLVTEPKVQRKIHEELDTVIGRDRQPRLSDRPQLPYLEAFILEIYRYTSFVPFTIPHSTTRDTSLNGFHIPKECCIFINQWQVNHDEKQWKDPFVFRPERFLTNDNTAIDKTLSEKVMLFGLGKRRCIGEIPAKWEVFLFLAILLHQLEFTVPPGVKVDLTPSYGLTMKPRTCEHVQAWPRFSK
Method: as §1, §2

Cyp1a1 = Cyp1a1 mRNA in rat liver after 5 days of dosing (microarray, RT-PCR); format: in vivo
Method: All animal experiments were conducted in accordance with the Guiding Principles in the Use of Animals in Toxicology (http://www.toxicology.org/ai/air/air6.asp) and were approved by Abbott's Institutional Animal Care and Use Committee (IACUC). Male Sprague-Dawley rats [Crl:CD®(SD)IGS BR], weighing ~250 g at study initiation were obtained from Charles River Laboratories, Inc. (Wilmington, MA). Rats were housed singly in ventilated, stainless steel, wire-bottom hanging cages and fed non-certified Rodent Chow (Harlan Labs, Madison, WI), and water ad libitum and acclimated for at least 5 days after arrival. […] Serum clinical chemistry parameters were quantified using an Aeroset Clinical Chemistry Analyzer (Abbott Laboratories, Abbott Park, IL) and included alanine amino transferase (ALT), aspartate amino transferase (AST), gamma glutamyltransferase (GGT), and alkaline phosphatase (ALP) activities.
Frozen liver or jejunum were immediately added to 4 ml of TRIzol reagent (Invitrogen Life Technologies) and homogenized using a Polytron 300D homogenizer (Brinkman Instruments, Westbury, NY). […] Nucleic acid concentration was determined by OD 260 nm (Smart-Spec, Bio-Rad Laboratories, Hercules, CA), and RNA integrity was evaluated using an Agilent 2100 bioanalyzer (Agilent Technologies, Foster City, CA). […]

T1 sequence (P11711 whole entry): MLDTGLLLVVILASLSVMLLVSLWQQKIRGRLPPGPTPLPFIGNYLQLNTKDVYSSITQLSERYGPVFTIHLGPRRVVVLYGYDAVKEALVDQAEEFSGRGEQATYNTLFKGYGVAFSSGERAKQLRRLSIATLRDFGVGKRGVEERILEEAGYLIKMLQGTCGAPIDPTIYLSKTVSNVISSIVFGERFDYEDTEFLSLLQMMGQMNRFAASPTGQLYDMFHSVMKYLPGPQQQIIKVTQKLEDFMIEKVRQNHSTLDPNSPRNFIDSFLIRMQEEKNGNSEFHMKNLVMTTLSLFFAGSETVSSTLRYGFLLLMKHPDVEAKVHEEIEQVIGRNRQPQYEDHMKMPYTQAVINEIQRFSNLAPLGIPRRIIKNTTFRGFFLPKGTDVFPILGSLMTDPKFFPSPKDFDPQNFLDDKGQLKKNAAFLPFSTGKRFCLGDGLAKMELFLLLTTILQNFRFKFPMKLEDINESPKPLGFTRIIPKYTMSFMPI

% parent remaining (rat Cyp 2A1; recombinant rat Cyp 2A1, 0.10 μM): 100%
% parent remaining (rat Cyp 2A1; recombinant rat Cyp 2A1, 0.21 μM): 100%
% parent remaining (rat Cyp1a2; recombinant rat Cyp 1A2, 0.10 μM): 0%
% parent remaining (rat Cyp1a2; recombinant rat Cyp 1A2, 0.21 μM): 0%
Cyp1a1 mRNA increase in rat liver (microarray) (Cyp1a1; 5 days of dosing, in at least one animal starting at the 100 mg/kg dose): 10–100 fold
Cyp1a1 mRNA expression in rat liver (RT-PCR) (Cyp1a1; 5 days, all doses (30, 100, 200 mg/kg/day)): strongly induced
SMILES: N#Cc1cccc(-c2noc(-c3cccnc3)n2)c1 [A-998679, 3-(5-pyridin-3-yl-1,2,4-oxadiazol-3-yl) benzonitrile]
